Reference: article PMC10525132, “Potent Antioxidant and Anti-Tyrosinase Activity of Butein and Homobutein Probed by Molecular Kinetic and Mechanistic Studies” (Antioxidants, 2023)

Columns and labels:
[1] = target: T1, mushroom tyrosinase (mTYR) (Agaricus bisporus, UniProt C7FF04); assay: Inhibition of mushroom tyrosinase monophenolase reaction (substrate L-tyrosine, dopachrome at 475 nm); format: biochemical; conditions: for Vmax^app / IC50: 30 °C; for Vmax^app: pH 6.8, L-tyrosine; for IC50: IC50 Monophenolase; for inhibition mode, monophenolase: from M-M and Lineweaver–Burk plots; for KI′ Calc. from Km / KI′ Calc. from Vmax / KI′ Uncompetitive / Ki: monophenolase; for Ki: KI Competitive
T1 construct: purchased Sigma-Aldrich (Milan, Italy)
Experimental: Measurements were performed at 30 °C in phosphate buffer (50 mM, pH 6.8) in polystyrene low-volume cuvettes (1.5 mL, l = 1 cm) with a double-beam spectrophotometer. […] The reaction was monitored at 475 nm for up to 60 min, following dopachrome formation. Initial velocity (V = ΔA/Δmin) was converted in μM/min according to Lambert–Beer law using the molar extinction coefficient ε = 3700 M^−1cm^−1 for dopachrome at λmax = 475 nm. Michaelis–Menten parameters (Km e Vmax) were obtained by processing initial velocity vs. substrate concentration data by non-linear fitting to M-M Equation (4), using Sigmaplot 11.0 (Systat Software Inc., San Jose, CA, USA). Linearized Lineweaver–Burk Equation (5) was used to identify the inhibition mode. In both equations, V indicates the measured initial rate of reaction, [S] is the initial substrate concentration, while Vmax and Km are, respectively, the maximum reaction rate (at saturating substrate concentration) and the M-M constant, with the substrate concentration yielding half-maximum rate.
Determination of M-M inhibition constants KI and KI′, along with assignment of the inhibition mode, is the most reliable method to accurately quantify the potency of enzyme inhibitors, as it is independent of the experimental settings, like substrate and enzyme concentrations.

[2] = Inhibited autoxidation of methyl linoleate in Triton X-100 micelles (O2 uptake kinetics); conditions: for n (stoichiometric factor of peroxyl radical trapping): MeLin/Triton X-100 micelles
Experimental: Autoxidation studies were performed as previously described, with slight modifications. In a typical experiment, 2.5 mL of air-saturated buffered (PBS, 50 mM, pH 7.4) aqueous dispersion of MeLin (final concentration 2.74 mM) in Triton™ X-100 (final concentration 16 mM) micelles were prepared by vortex mixing. A fresh stock solution of AAPH was added (final concentration 2.5 mM), immediately followed by addition (5–30 μL) of a stock solution of the antioxidant in acetonitrile (final concentration of 1–20 μM) and by additional vortex mixing (5 s). The mixture was sealed in a 2 mL glass vial provided with a PTFE-coated stirring bar and capped with the O2 sensor. The sample was equilibrated at 37 °C in a thermostatted bath equipped with a sealed magnetic stirrer, and oxygen concentration was monitored with time as previously described. Oxygen consumption in the absence of antioxidants was compared with that recorded in the presence of butein, homobutein, or α-tocopherol (α-TOH) as the reference antioxidant. […]. The stoichiometric factor n was determined from the length of the inhibited period τ by Equation (3). The rate of initiation Ri was determined in preliminary experiments using α-TOH as the inhibitor (n = 2) by Equation (3). (1) −d[O2]/dt=kp[RH]Ri/nkinh[AH]+Ri (2) R0/Rinh−Rinh/R0=nkinh[AH]/2ktRi (3) n=Riτ/[AH]
To study the antioxidant activity of butein and homobutein on quantitative grounds, we performed inhibited autoxidation studies using biomimetic neutral micelles of methyl linoleate (MeLin) in aqueous Triton™ X-100 (with 50 mM PBS, pH 7.4, 37 °C), since it is a well-validated model we and others used in previous studies. The reaction kinetics was followed by monitoring oxygen consumption via miniaturized NIR-fluorescence-quenching O2 probes, according to a previously validated protocol, both in the absence and in the presence of different concentrations of butein or homobutein. The reaction was initiated thermally in the aqueous phase by the controlled decomposition of the azo compound AAPH so as to clearly distinguish the chain-breaking mechanism from other efficacies based on interference with the initiation process (e.g., the Fenton reaction by metal chelation) and α-TOH was used as the reference antioxidant.

mTYR [3] = assay: Stability toward air and mTYR, oxygen consumption; conditions: 0.1 mM, pH 6.8, 30 °C, axes [O2] M vs Time / s
mTYR [4] = target: mTYR (Agaricus bisporus, UniProt C7FF04); assay: Stability toward air and mTYR, decay of concentration by UV-Vis; conditions: air-saturated PBS pH 6.8, 30 °C, 7 U/ml mTYR, 0.05 and 0.1 mM
[5] = average over inhibitor concentrations
[6] = AAPH (2.5 mM) initiated autoxidation of MeLin/Triton X-100 micelles, 37 °C, pH 7.4
[7] = MeLin in Triton X-100 micelles, pH 7.4, 37 °C

T1 sequence (C7FF04 1-392): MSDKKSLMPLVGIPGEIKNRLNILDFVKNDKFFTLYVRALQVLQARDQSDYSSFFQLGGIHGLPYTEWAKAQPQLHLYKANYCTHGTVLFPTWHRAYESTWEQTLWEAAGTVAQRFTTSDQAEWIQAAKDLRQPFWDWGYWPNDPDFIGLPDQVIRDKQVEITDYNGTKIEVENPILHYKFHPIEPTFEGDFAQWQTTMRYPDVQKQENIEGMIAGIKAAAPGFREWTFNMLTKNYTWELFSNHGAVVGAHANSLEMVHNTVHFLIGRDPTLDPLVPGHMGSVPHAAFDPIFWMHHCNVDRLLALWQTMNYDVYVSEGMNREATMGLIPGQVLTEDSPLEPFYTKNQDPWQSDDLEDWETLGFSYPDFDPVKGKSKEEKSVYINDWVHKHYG
Sequence of mTYR (Agaricus bisporus, UniProt C7FF04) (C7FF04 1-392): as above

SMILES | Vmax^app ([1]; inhibitor 1.4 µM) [µM/min] | Vmax^app ([1]; inhibitor 2.8 µM) [µM/min] | Vmax^app ([1]; inhibitor 5.6 µM) [µM/min] | Vmax^app ([1]; inhibitor 11.2 µM) [µM/min] | IC50 ([1]; pH 6.8, L-tyrosine 0.05 mM) [µM] | IC50 ([1]; pH 6.8, L-tyrosine 0.125 mM) [µM] | IC50 ([1]; pH 6.8, L-tyrosine 0.25 mM) [µM] | IC50 ([1]; pH 6.8, L-tyrosine 0.50 mM) [µM] | IC50 ([1]; pH 6.8, L-tyrosine 1.00 mM) [µM] | inhibition mode, monophenolase [1] | kinh (inhibition rate constant) [2, 6] | kinh (inhibition rate constant) [2, 7] | oxygen consumption, zero order regression slope b[1] (mTYR [3]; with tyrosinase 7 U/ml) | oxygen consumption, zero order regression slope b[1] (mTYR [3]; without enzyme) | behaviour as substrate of mTYR (mTYR [4]) | also measured
O=C(/C=C/c1ccc(O)c(O)c1)c1ccc(O)cc1O [Butein, (E)-1-(2,4-dihydroxyphenyl)-3-(3,4-dihydroxyphenyl)prop-2-en-1-one] | 3.24 ± 0.07 | 3.02 ± 0.05 | 2.21 ± 0.04 | 1.95 ± 0.07 | 45.1 ± 18.3 | 35.6 ± 28.4 | 12.9 ± 3.22 | 12.3 ± 2.52 | 10.9 ± 2.19 | uncompetitive | 29.8 ± 9.2 10^3 M^−1s^−1 | (3.0 ± 0.9) × 10^4 M^−1s^−1 | -2.789e-9 | -1.989e-9 | not a significant substrate | inhibition mode, monophenolase ([1]; listed as BU): reversible uncompetitive; KI′ Calc. from Km [1, 5]: 10.74 ± 3.36 µM; KI′ Calc. from Vmax [1, 5]: 9.17 ± 2.01 µM; KI′ Uncompetitive ([1]; averaged over both calculation methods): 9.95 µM; KI′ Uncompetitive ([1]; averaged over both calculation methods, listed as BU): 9.95 ± 2.69 µM; KI′ Calc. from Km ([1]; inhibitor 1.4 µM): 7.47 µM; KI′ Calc. from Vmax ([1]; inhibitor 1.4 µM): 7.44 µM; KI′ Calc. from Km ([1]; inhibitor 2.8 µM): 10.50 µM; KI′ Calc. from Vmax ([1]; inhibitor 2.8 µM): 10.19 µM; KI′ Calc. from Km ([1]; inhibitor 5.6 µM): 9.60 µM; KI′ Calc. from Vmax ([1]; inhibitor 5.6 µM): 7.55 µM; KI′ Calc. from Km ([1]; inhibitor 11.2 µM): 15.40 µM; KI′ Calc. from Vmax ([1]; inhibitor 11.2 µM): 11.49 µM; kinh (inhibition rate constant) ([2]; MeLin in Triton X-100 micelles, pH 7.4, 37 °C, listed as butein): 30000 M⁻¹ s⁻¹; n (stoichiometric factor of peroxyl radical trapping) ([2]; 37 °C, pH 7.4): 3.7 ± 1.1; n (stoichiometric factor of peroxyl radical trapping) ([2]; 37 °C, pH 7.4, listed as butein): 3.7
COc1cc(/C=C/C(=O)c2ccc(O)cc2O)ccc1O [Homobutein, (E)-1-(2,4-dihydroxyphenyl)-3-(4-hydroxy-3-methoxyphenyl)prop-2-en-1-one] | 3.83 ± 0.04 | 3.78 ± 0.05 | 3.63 ± 0.06 | 3.15 ± 0.03 | 4.01 ± 0.66 | 4.58 ± 0.88 | 6.06 ± 0.95 | 8.75 ± 1.18 | 14.8 ± 1.05 | nearly competitive | 2.8 ± 0.9 10^3 M^−1s^−1 | (2.8 ± 0.9) × 10^3 M^−1s^−1 | -3.664e-9 | -2.859e-9 | not a significant substrate | Ki [1, 5]: 2.76 ± 0.7 µM; Ki ([1]; inhibitor 1.4 µM): 2.19 µM; Ki ([1]; inhibitor 2.8 µM): 2.24 µM; Ki ([1]; inhibitor 5.6 µM): 2.94 µM; Ki ([1]; inhibitor 11.2 µM): 3.67 µM; KI′ Uncompetitive ([1]; mixed-type treatment, average): 140.53 ± 94.57 µM; KI′ Uncompetitive ([1]; mixed-type treatment, inhibitor 1.4 µM): 268.10 µM; KI′ Uncompetitive ([1]; mixed-type treatment, inhibitor 2.8 µM): 151.20 µM; KI′ Uncompetitive ([1]; mixed-type treatment, inhibitor 5.6 µM): 92.40 µM; KI′ Uncompetitive ([1]; mixed-type treatment, inhibitor 11.2 µM): 50.40 µM; kinh (inhibition rate constant) ([2]; MeLin in Triton X-100 micelles, pH 7.4, 37 °C, listed as homobutein): 2800 M⁻¹ s⁻¹
